# Test results published in article PMC10056899, “Neuroprotective and Antiherpetic Properties of Polyphenolic Compounds from Maackia amurensis Heartwood” (Molecules, 2023).
# “And” between values parts separate entries of the source, which are not always exact repeats. Equal values may be shown once. Read-outs that look alike come from different tables or passages of the source.
# Experiments:
# [1] = Cytotoxicity against Vero cells (MTT assay); assay type: cell-based; conditions: African green monkey (Chlorocebus sp.)
# Protocol: (§1) The HSV-1 strain L2 and Vero cell culture (kidney epithelial cells of the African green monkey Chlorocebus sp.) were obtained from the N.F. Gamaleya Federal Research Centre for Epidemiology and Microbiology (Moscow, Russia). HSV-1 was grown in Vero cells, using Dulbecco′s Modified Eagle′s Medium (DMEM, Biolot, St. Petersburg, Russia) supplemented with 10% fetal bovine serum (FBS, Biolot, St. Petersburg, Russia) and 100 U/mL of gentamycin (Dalkhimpharm, Khabarovsk, Russia), at 37 °C in a CO2 incubator. In the maintenance medium, the FBS concentration was decreased to 1%.
# (§2) The tested compounds were dissolved in DMSO (Sigma, St. Louis, MO, USA) at a concentration 10 mg/mL and stored at −20 °C. For cytotoxicity and anti-HSV-1 activity determination, the stock solutions were diluted with DMEM so that the final concentration of DMSO was 0.5%.
# The cytotoxicity evaluation of the studied compounds was performed using the MTT assay, as described previously. In brief, confluent Vero cells in 96-well microplates (1 × 10^4 cells/well) were incubated with tested compounds at various concentrations (1–500 μg/mL) at 37 °C for 48 h (5% CO2). Untreated cells were used as controls. Then, MTT solution (methylthiazolyltetrazolium bromide, Sigma, St. Louis, MO, USA) was added to cells at a concentration of 5 mg/mL and the cells were incubated at 37 °C for 2 h. After dissolution of formazan crystals, optical densities were read at 540 nm (Labsystems Multiskan RC, Vantaa, Finland). […] [42]. Experiments were performed in triplicate and repeated three times.
# HSV-1 [2] = assay: Anti-HSV-1 activity, cytopathic effect (CPE) inhibition assay in Vero cells; assay type: cell-based, HSV-1 strain L2; conditions: for IC50: read-out: IC50 (CPE assay); for SI = CC50/IC50: Vero cells, HSV-1
# Protocol: as §1, §2
# The anti-HSV-1 activity of stilbenes was evaluated using cytopathic effect (CPE) inhibition assay in Vero cells. We infected the monolayer of cells grown in 96-well plates (1 × 10^4 cells/well) with 100 µL/well of virus suspension (100 TCD50/mL) and we simultaneously treated it with stilbenes 1–6 (100 µL/well) at various concentrations (from 1 to 400 μg/mL) for one hour at 37 ◦C. After virus absorption, we removed the mixture of virus and stilbenes, washed the cells, and added the maintenance medium with 1% FBS. […] We used MTT assay to evaluate the antiviral activity of stilbenes. The viral inhibition rate (IR, %) was calculated according to Equation (3):(3) IR, %=Atv−Acv/Acd−Acv×100, where: • Atv is the absorbance of cells infected with virus and treated with a polyphenolic compound; • Acv is the absorbance of the untreated virus-infected cells; • Acd is the absorbance of control (untreated and non-infected) cells.
# The selectivity index (SI) was calculated as the ratio of CC50 to IC50. Experiments were repeated three times.
# HSV-1 [3] = assay: Anti-HSV-1 activity, HSV-1 DNA level by real-time PCR (RT-PCR); assay type: cell-based, HSV-1 strain L2; conditions: 5 µg/mL, simultaneous treatment, 48 h; for 1, 4 and Maxar given on average
# Protocol: The anti-HSV-1 activity of the polyphenolic compounds from M. amurensis was also studied using the real-time PCR (RT-PCR) technique (Figure 5 and Table S69, Supplementary Data). Vero cells were simultaneously infected with 100 TCD50/mL HSV-1 and treated with polyphenolic compounds 1–6 at concentrations of 50 and 5 μg/mL. After 48 h of cell incubation, viral DNA was extracted from the supernatants, and the relative level of HSV-1 DNA was determined using RT-PCR. The effect of stilbenes on the relative level of viral DNA was assessed by 2^−ΔCt method and reported as fold reduction relative to virus control, to which the value of 1.0 was assigned.
# For the viral DNA extraction assay, Vero cells grown in 96-well plates were infected with HSV-1 and simultaneously treated with polyphenolic compounds and incubated at 37 °C in a CO2-incubator for 48 h. After incubation, the culture media and the cells scraped from the plate were transferred to centrifuge tubes. The cell debris was removed by centrifugation at 300× g for 10 min. Then, supernatant was collected and kept at −20 °C. The HSV-1 DNA was extracted from supernatant by using the AmpliSens® DNA-sorb-AM (K1-12-100-CE) nucleic acid extraction kit (Moscow, Russia) according to the manufacturer′s instructions. […]
# The DNA HSV was detected in the obtained DNA samples using the AmpliSens® HSV I, II-FRT-100F PCR kit (Moscow, Russia) on a real-time PCR instrument Rotor-Gene Q (Qiagen, Hilden, Nordrhein-Westfalen, Germany) according to the manufacturer′s instructions. […] In the real-time PCR, the amplified product is detected with the use of fluorescent dyes. […] The threshold cycle number, Ct, was measured as the PCR cycle, where the amount of amplified target reached the threshold value. The reduction in the HSV-1 DNA levels in culture supernatants was assessed by the change in the threshold cycle (ΔCt) (Equation (4)):(4) ΔCt=Cttv−Ctcv where: • Cttv is the average Ct value for the infected samples after treatment with polyphenolic compounds; • Ctcv corresponds to the average Ct value for the virus control. […]
# [4] = DPPH radical scavenging assay; conditions: 20 min; for IC50: read-out: DPPH Scavenging Effect IC50
# Protocol: The DPPH (2,2-diphenyl-1-picrylhydrazyl) scavenging effect of polyphenolic compounds 1-6 from M. amurensis heartwood was evaluated as described previously in [40]. Stilbenes were added to DPPH solution in MeOH (10^−4 M) at a concentration range from 1 to 34 µM. The mixture was kept in the dark at room temperature for 20 min. Then, we measured the absorbance at 517 nm using a Shimadzu UV 1240 spectrophotometer (Shimadzu, Kyoto, Japan). The DPPH radical-scavenging effect (%) of the stilbenes was calculated using Equation (1): (1) DPPH scavenging effect, %=A0−Ax/A0×100, where: • A0 is the absorbance of DPPH solution without polyphenolic compounds (blank sample); • Ax is the absorbance of DPPH solution in the presence of different concentrations of polyphenolic compounds.
# Quercetin and ascorbic acid were used as reference compounds. All experiments were performed in triplicate. The half maximal inhibitory concentration (IC50) for polyphenolic compounds was calculated by plotting the DPPH scavenging effect (%) against the concentrations of polyphenolic compounds. IC50 values are given as the mean ± SEM.
# [5] = Ferric reducing antioxidant power (FRAP) assay; conditions: 4 min, pH 3.6
# Protocol: The FRAP assay was carried out as described in [41]. We prepared FRAP reagent by mixing 2.5 mL of TPTZ (2,4,6-tris(2-pyridyl)-s-triazine) solution (10 mM) in 40 mM HCl and […] of FeCl3 solution (20 mM) in acetate buffer solution (300 mM, pH 3.6). Then, we added stilbenes 1–6 to 3 mL of FRAP reagent at concentrations from 1 to 34 µM. The mixture was kept in the dark at room temperature for 4 min. Then, we measured the absorbance at 595 nm using a Shimadzu UV 1240 spectrophotometer. Equation (2) was used to calculate the FRAP values of stilbenes 1–6:(2) FRAP=CFe/Cx, where: • CFe is the concentration of Fe^2+ (µM) formed in the reaction; • Cx is the concentration of polyphenolic compounds in the reacting mixture.
# The concentration of Fe^2+ (µM) formed in the reaction was determined using the calibration curve obtained for different concentrations of FeSO4·7H2O.
# [6] = test system: PQ-treated Neuro-2a cells; assay: PQ-induced neurotoxicity model, cell viability (MTT assay); assay type: cell-based, murine; conditions: 10, 1, 0.1 μM, PQ 1 mM
# Protocol: After 24 h of adhesion, we treated Neuro-2a cells (1 × 10^4 cells/well) with stilbenes (0.01–10 μM) for 1 h and added 1 mM of PQ (Sigma-Aldrich, St. Louis, MO, USA). Cells incubated without PQ or with PQ were used as positive and negative control, respectively. After 24 h, we measured the cell viability using MTT assay. The results are presented as percentages of the positive control value.
# [7] = test system: PQ-treated Neuro-2a cells; assay: Intracellular ROS level in PQ-treated cells (H2DCF-DA); assay type: cell-based, murine; conditions: 10, 1, 0.1 μM
# Protocol: After 24 h of adhesion, Neuro-2a cells (1 × 10^4 cells/well) were incubated with stilbenes (0.01–10 µM) for 1 h. After that, we added PQ (1 mM) to each well and incubated the cells for 3 h. To study ROS formation, we added 20 µL of 2,7-dichlorodihydrofluorescein diacetate solution ([…], H2DCF-DA, Molecular Probes, Eugene, OR, USA) to each well, so that the concentration was 10 µM, and kept the microplate in a CO2–incubator for additional 30 min at 37 °C.
# [8] = test system: PQ-treated Neuro-2a cells; assay: Mitochondrial membrane potential in PQ-treated cells (TMRM); assay type: cell-based, murine; conditions: 10 μM
# Protocol: […] Then, we added PQ (500 μM) and kept the cell suspension in a CO2-incubator for 1 h. Cells incubated without PQ and stilbenes and with PQ only were used as positive and negative control, respectively. We added the tetramethylrhodamine methyl (TMRM) (Sigma-Aldrich, St. Louis, MO, USA) solution (500 nM) to each well and kept the cells for 30 min in a CO2-incubator at 37 °C. The intensity of fluorescence was measured with a PHERAstar […] reader (BMG Labtech, Ortenberg, Germany) at λex = 540 nm and λem = 590 nm. We processed the data by MARS Data Analysis v. 3.01R2 (BMG Labtech, Ortenberg, Germany) and presented the results as percentages of the positive control value.
# [9] = Human alphaherpesvirus 1, added to Vero cells simultaneously with the virus, 100 TCD50/mL
SMILES,CC50 at 48 h [1],IC50 (HSV-1 [2]; [9]),SI = CC50/IC50 (HSV-1 [2]),Reduction of relative level of HSV-1 DNA relative to virus control (HSV-1 [3]) [log10],DPPH Scavenging Effect IC50 [4] [µg],IC50 [4] [µM],FRAP CFe2+(µM)/Cpolyphenolic compound (µM) [5],FRAP CFe2+(µM)/Cpolyphenolic compound (μkg/mL) [5],Effect on viability of PQ-treated cells [6],"IC50 (HSV-1 [2]; Human alphaherpesvirus 1, Vero)",Effect on ROS level in PQ-treated cells [7],Increase of mitochondrial membrane potential compared to PQ-treated cells [8] [%]
"Nc1nc2c(ncn2COCCO)c(=O)[nH]1 [Acyclovir, reference compound]",> 1000 µg/mL and > 4 mM,2.1 µg/mL and 9.3 µM,430,4,,,,,,,,
"O=C1O[C@H]([C@@H](O)CO)C(O)=C1O [Ascorbic acid, reference compound]",,,,,5.83 ± 0.49,33.1 ± 2.8,3.58 ± 0.29 CFe2+(µM)/Cpolyphenolic compound (µM),20.34 ± 0.16 CFe2+(µM)/Cpolyphenolic compound (μkg/mL),,,,
"Oc1cc(O)cc(/C=C/c2ccc(O)c(O)c2)c1 [Compound 2, piceatannol]",250 ± 30 µg/mL,22 µg/mL and 90.2 µM,11.4 ± 1.4,,1.05 ± 0.12,4.3 ± 0.5,15.71 ± 1.43 CFe2+(µM)/Cpolyphenolic compound (µM),64.38 ± 5.86 CFe2+(µM)/Cpolyphenolic compound (μkg/mL),did not show any effect,,,
"COc1ccc(-c2coc3c4c(ccc3c2=O)OC(c2cc(O)cc(O)c2)C(c2ccc(O)c(O)c2)O4)cc1 (stereo not drawn) [Compound 5, maackiasine]",156 µg/mL and 297 µM,,6.6 and 6.6 ± 0.8,,1.32 ± 0.16,2.5 ± 0.3,2.50 ± 0.38 CFe2+(µM)/Cpolyphenolic compound (µM),4.75 ± 0.72 CFe2+(µM)/Cpolyphenolic compound (μkg/mL),did not show any effect,23.7 µg/mL and 45 µM,,
"COc1cc([C@@H]2c3c(O)cc(O)cc3[C@@H]3[C@H]2CO[C@@H]3c2ccc(O)c(O)c2)cc(OC)c1O [Compound 6, maackolin]",256 µg/mL and 567 µM,,6.4 and 6.4 ± 0.8,,0.90 ± 0.14,2 ± 0.3,,51.11 ± 5.86 CFe2+(µM)/Cpolyphenolic compound (μkg/mL),,40.2 µg/mL and 88.9 µM,did not decrease the ROS level,9
"O=c1c(O)c(-c2ccc(O)c(O)c2)oc2cc(O)cc(O)c12 [Quercetin, reference compound]",,,,,2.81 ± 0.12,9.3 ± 0.4,5.53 ± 0.55 CFe2+(µM)/Cpolyphenolic compound (µM),18.3 ± 1.82 CFe2+(µM)/Cpolyphenolic compound (μkg/mL),,,,
